Measured values from patent US8552002B2 (Novartis AG, priority 2004, dated 2013).

Legend:
Type in all cases: biochemical
[1] = molecular target: T1, Tek (Homo sapiens, UniProt Q02763); assay: Recombinant GST-Tek (Tie-2) tyrosine kinase assay (33P into poly(Glu,Tyr)); conditions: Examples 1 to 169
T1 construct: amino acids 773-1124 of the cytoplasmic kinase domain of human Tek, N-terminally fused to GST; made in house; host or cells: Sf9 insect cells (baculovirus)
How it was run: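 GST-fused human Tek kinase domain (aa 773-1124), baculovirus-expressed, 150 ng per reaction; 10 μg/mL poly(Glu,Tyr) 4:1, 4.0 μM [γ-33P]ATP, 3 mM MnCl2/3 mM MgCl2, pH 7.5, 30 min at ambient temperature. 33P uptake read on PVDF filters; IC50 by linear regression from four concentrations in duplicate.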

[2] = molecular target: T2, KDR (Homo sapiens, UniProt P35968); assay: Inhibitory activity against KDR (VEGF-R2), in vitro data of Examples 170 and 207; conditions: 10 μM; Examples 1 to 169; read-out: KDR inhibition at 10 μM
T2 construct: expressed in transfected cells; host or cells: CHO cells
T2 sequence (P35968 20-1356): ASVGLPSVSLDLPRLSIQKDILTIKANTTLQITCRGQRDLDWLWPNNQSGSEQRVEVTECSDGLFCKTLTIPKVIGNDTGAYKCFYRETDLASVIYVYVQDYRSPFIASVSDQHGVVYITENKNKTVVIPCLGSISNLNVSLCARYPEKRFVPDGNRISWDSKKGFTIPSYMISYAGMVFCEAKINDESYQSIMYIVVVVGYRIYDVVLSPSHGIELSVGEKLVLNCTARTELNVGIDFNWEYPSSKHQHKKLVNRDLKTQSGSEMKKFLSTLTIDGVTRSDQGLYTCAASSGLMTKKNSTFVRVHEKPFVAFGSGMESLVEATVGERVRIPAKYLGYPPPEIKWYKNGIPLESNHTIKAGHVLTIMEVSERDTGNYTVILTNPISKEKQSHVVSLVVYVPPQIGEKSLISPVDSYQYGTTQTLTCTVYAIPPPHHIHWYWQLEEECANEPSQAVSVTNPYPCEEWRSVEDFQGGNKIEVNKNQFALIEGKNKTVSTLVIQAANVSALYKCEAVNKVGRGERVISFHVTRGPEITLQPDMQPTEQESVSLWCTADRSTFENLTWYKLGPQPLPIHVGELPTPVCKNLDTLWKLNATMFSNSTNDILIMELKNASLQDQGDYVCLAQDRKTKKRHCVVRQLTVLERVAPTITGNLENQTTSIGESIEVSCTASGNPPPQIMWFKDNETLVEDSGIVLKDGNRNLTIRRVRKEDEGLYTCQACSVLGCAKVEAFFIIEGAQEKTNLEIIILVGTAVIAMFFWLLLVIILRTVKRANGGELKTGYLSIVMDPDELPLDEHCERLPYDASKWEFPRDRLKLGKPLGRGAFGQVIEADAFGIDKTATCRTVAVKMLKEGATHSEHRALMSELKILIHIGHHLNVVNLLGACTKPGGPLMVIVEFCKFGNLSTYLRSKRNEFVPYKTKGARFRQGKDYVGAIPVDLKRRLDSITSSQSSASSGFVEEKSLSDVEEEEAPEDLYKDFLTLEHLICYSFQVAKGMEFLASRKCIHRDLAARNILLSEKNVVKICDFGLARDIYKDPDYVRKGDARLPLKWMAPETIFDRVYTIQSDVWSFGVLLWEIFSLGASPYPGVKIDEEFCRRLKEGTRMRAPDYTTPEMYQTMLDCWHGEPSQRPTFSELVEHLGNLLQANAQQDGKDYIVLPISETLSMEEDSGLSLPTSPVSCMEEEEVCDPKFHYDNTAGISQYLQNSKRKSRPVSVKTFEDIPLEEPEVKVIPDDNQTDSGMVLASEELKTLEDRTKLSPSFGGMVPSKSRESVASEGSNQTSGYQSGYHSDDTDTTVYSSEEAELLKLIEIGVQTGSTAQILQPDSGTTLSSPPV
How it was run: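 KDR tyrosine phosphorylation detected by luminescence after overnight 4° C capture of 20 μg lysate protein with PY20:AP antibody. Lysates came from cells given compound for 2 h at 37° C, then final 20 ng/ml VEGF for 5 min; compound-free medium as control.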

[3] = molecular target: T3, FGFR3 (K650E) (Homo sapiens, UniProt P22607, K650E); assay: Recombinant GST-FGFR-3-K650E tyrosine kinase assay (33P into poly(Glu,Tyr)); conditions: 10 μM; Examples 1 to 169; read-out: FGFR3 (K650E) inhibition at 10 μM
T3 construct: amino acids 411-806 of the cytoplasmic domain of human FGFR-3, N-terminally fused to GST; made in house; host or cells: Sf9 insect cells (baculovirus)
T3 sequence (P22607 411-806 K650E): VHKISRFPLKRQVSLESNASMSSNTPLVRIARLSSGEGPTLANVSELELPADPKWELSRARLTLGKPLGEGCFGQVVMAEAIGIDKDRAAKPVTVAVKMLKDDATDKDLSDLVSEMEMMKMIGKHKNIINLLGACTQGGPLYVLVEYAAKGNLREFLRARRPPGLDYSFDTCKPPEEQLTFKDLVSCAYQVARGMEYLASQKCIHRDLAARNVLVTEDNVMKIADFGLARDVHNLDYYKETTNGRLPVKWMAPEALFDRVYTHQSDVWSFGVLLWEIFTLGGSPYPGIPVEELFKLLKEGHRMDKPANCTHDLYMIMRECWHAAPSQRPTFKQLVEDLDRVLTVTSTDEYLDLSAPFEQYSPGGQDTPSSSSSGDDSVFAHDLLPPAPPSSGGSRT

T1 sequence (Q02763 773-1124): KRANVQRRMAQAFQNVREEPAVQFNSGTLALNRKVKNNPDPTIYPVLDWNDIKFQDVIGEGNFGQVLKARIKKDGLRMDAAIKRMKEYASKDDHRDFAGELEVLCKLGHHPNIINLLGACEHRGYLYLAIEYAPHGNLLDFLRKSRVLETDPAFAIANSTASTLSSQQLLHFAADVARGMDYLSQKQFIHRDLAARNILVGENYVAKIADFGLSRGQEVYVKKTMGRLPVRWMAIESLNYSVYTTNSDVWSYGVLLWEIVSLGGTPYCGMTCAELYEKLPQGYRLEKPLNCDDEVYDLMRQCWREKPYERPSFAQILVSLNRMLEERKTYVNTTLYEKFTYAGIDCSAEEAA

SMILES	inhibition at 10 µM [1] [%]	inhibition at 10 µM [2] [%]	inhibition at 10 µM [3] [%]
COc1cc(OC)c(Cl)c(NC(=O)N(C)c2cc(Nc3ccc(N4CCN(C(C)C)CC4)cc3)ncn2)c1Cl [Example 163, 3-(2,6-Dichloro-3,5-dimethoxy-phenyl)-1-{6-[4-(4-isopropyl-piperazin-1-yl)-phenylamino]-pyrimidin-4-yl}-1-methyl-urea]	12 to 100	67 to 100	27 to 100
COc1cc(C)c(NC(=O)Nc2cc(Nc3ccc(N4CCN(C)CC4)cc3)ncn2)cc1OC [Example 34, 1-(4,5-Dimethoxy-2-methyl-phenyl)-3-{6-[4-(4-methyl-piperazin-1-yl)-phenyl-amino]-pyrimidin-4-yl}-urea]	12 to 100	67 to 100	27 to 100
COc1cc(OC)c(Cl)c(NC(=O)Nc2cc(Nc3ccc(OCCN4CCCC4)cc3)ncn2)c1Cl [Example 155, 1-(2,6-Dichloro-3,5-dimethoxy-phenyl)-3-{6-[4-(2-pyrrolidin-1-yl-ethoxy)-phenylamino]-pyrimidin-4-yl}-urea]	12 to 100	67 to 100	27 to 100
CN(C(=O)Nc1c(Cl)cccc1Cl)c1cc(Nc2cccc(C#N)c2)ncn1 [Example 114, 1-[6-(3-Cyano-phenylamino)-pyrimidin-4-yl]-3-(2,6-dichloro-phenyl)-1-methyl-urea]	12 to 100	67 to 100	27 to 100
CN1CCN(c2ccc(Nc3cc(NC(=O)Nc4ccccc4Br)ncn3)cc2)CC1 [Example 94, 1-(2-Bromo-phenyl)-3-{6-[4-(4-methyl-piperazin-1-yl)-phenylamino]-pyrimidin-4-yl}-urea]	12 to 100	67 to 100	27 to 100
COc1cc(OC)c(Cl)c(NC(=O)N(C)c2cc(Nc3ccc(CN(C)C)c(C(F)(F)F)c3)ncn2)c1Cl [Example 167, 3-(2,6-Dichloro-3,5-dimethoxy-phenyl)-1-[6-(4-dimethylaminomethyl-3-trifluoromethyl-phenylamino)-pyrimidin-4-yl]-1-methyl-urea]	12 to 100	67 to 100	27 to 100
COc1cc(NC(=O)Nc2cc(Nc3ccc(N4CCN(C)CC4)cc3)ncn2)cc(OC)c1OC [Example 14, 1-{6-[4-(4-Methyl-piperazin-1-yl)-phenylamino]-pyrimidin-4-yl}-3-(3,4,5-trimethoxy-phenyl)-urea]	12 to 100	67 to 100	27 to 100
COc1cc(NC(=O)N(CCN2CCN(C)CC2)c2cc(Nc3ccccc3)ncn2)c(Cl)c(OC)c1 [Example 57, 3-(2-Chloro-3,5-dimethoxy-phenyl)-1-[2-(4-methyl-piperazin-1-yl)-ethyl]-1-(6-phenylamino-pyrimidin-4-yl)-urea]	12 to 100	67 to 100	27 to 100
COc1cc(C)c(NC(=O)Nc2cc(Nc3cccc(N4CCN(C)CC4)c3)ncn2)cc1OC [Example 35]	12 to 100	67 to 100	27 to 100
CCN(CC)c1ccc(Nc2cc(N(C)C(=O)Nc3c(Cl)cccc3Cl)ncn2)cc1 [Example 110, 3-(2,6-Dichloro-phenyl)-1-[6-(4-diethylamino-phenylamino)-pyrimidin-4-yl]-1-methyl-urea]	12 to 100	67 to 100	27 to 100
COc1cc(NC(=O)Nc2cc(Nc3cccc(N4CCN(C)CC4)c3)ncn2)cc(OC)c1OC [Example 15, 1-{6-[3-(4-Methyl-piperazin-1-yl)-phenylamino]-pyrimidin-4-yl}-3-(3,4,5-trimethoxy-phenyl)-urea]	12 to 100	67 to 100	27 to 100
CN(C)c1cccc(Nc2cc(N(C)C(=O)Nc3c(Cl)cccc3Cl)ncn2)c1 [Example 120, 3-(2,6-Dichloro-phenyl)-1-[6-(3-dimethylamino-phenylamino)-pyrimidin-4-yl]-1-methyl-urea]	12 to 100	67 to 100	27 to 100
CCN(C(=O)Nc1c(Cl)ccc(OC)c1Cl)c1cc(Nc2ccc(N3CCN(C)CC3)cc2)ncn1 [Example 59, 3-(2,6-Dichloro-3-methoxy-phenyl)-1-ethyl-1-{6-[4-(4-methyl-piperazin-1-yl)-phenylamino]-pyrimidin-4-yl}-urea]	12 to 100	67 to 100	27 to 100
CCN(CC)CCCOc1ccc(Nc2cc(NC(=O)Nc3ccccc3Cl)ncn2)cc1 [Example 102, 1-(2-Chloro-phenyl)-3-{6-[4-(3-diethylamino-propoxy)-phenylamino]-pyrimidin-4-yl}-urea]	12 to 100	67 to 100	27 to 100
COc1cc(NC(=O)Nc2cc(Nc3cccc(N4CCN(C)CC4)c3)ncn2)c(Cl)c(OC)c1 [Example 41]	12 to 100	67 to 100	27 to 100
COc1cc(OC)c(Cl)c(NC(=O)Nc2cc(Nc3ccc(CN(C)C)c(C(F)(F)F)c3)ncn2)c1Cl [Example 159, 1-(2,6-Dichloro-3,5-dimethoxy-phenyl)-3-[6-(4-dimethylaminomethyl-3-trifluoromethyl-phenylamino)-pyrimidin-4-yl]-urea]	12 to 100	67 to 100	27 to 100
Cc1cccc(Cl)c1NC(=O)Nc1cc(Nc2cccc(N3CCN(C)CC3)c2)ncn1 [Example 7, 1-(2-Chloro-6-methyl-phenyl)-3-{6-[3-(4-methyl-piperazin-1-yl)-phenyl-amino]-pyrimidin-4-yl}-urea]	12 to 100	67 to 100	27 to 100
COc1ccc(Cl)c(NC(=O)N(C)c2cc(Nc3cccc(N4CCN(C)CC4)c3)ncn2)c1Cl [Example 60, 3-(2,6-Dichloro-3-methoxy-phenyl)-1-methyl-1-{6-[3-(4-methyl-piperazin-1-yl)-phenylamino]-pyrimidin-4-yl}-urea]	12 to 100	67 to 100	27 to 100
COc1ccc(NC(=O)Nc2cc(Nc3cccc(N4CCN(C)CC4)c3)ncn2)c(OC)c1 [Example 17, 1-(2,4-Dimethoxy-phenyl)-3-{6-[3-(4-methyl-piperazin-1-yl)-phenyl-amino]-pyrimidin-4-yl}-urea]	12 to 100	67 to 100	27 to 100
CCN(C(=O)Nc1cccc(OC)c1OC)c1cc(Nc2ccc(N3CCN(C)CC3)cc2)ncn1 [Example 46, 3-(2,3-Dimethoxy-phenyl)-1-ethyl-1-{6-[4-(4-methyl-piperazin-1-yl)-phenylamino]-pyrimidin-4-yl}-urea]	12 to 100	67 to 100	27 to 100

Second part, the compound after the results:

inhibition at 10 µM [1] [%]	inhibition at 10 µM [2] [%]	inhibition at 10 µM [3] [%]	SMILES
12 to 100	67 to 100	27 to 100	CN(C(=O)Nc1c(Cl)cccc1Cl)c1cc(Nc2cccc(Cl)c2)ncn1 [Example 124, 1-[6-(3-Chloro-phenylamino)-pyrimidin-4-yl]-3-(2,6-dichloro-phenyl)-1-methyl-urea]
12 to 100	67 to 100	27 to 100	COc1ccc(NC(=O)Nc2cc(Nc3cccc(N4CCN(C)CC4)c3)ncn2)cc1Cl [Example 25, 1-(3-Chloro-4-methoxy-phenyl)-3-{6-[3-(4-methyl-piperazin-1-yl)-phenyl-amino]-pyrimidin-4-yl}-urea]
12 to 100	67 to 100	27 to 100	O=C(Nc1ccccc1)Nc1cc(Nc2cccc(Cl)c2)ncn1 [Example 141, 1-[6-(3-Chloro-phenylamino)-pyrimidin-4-yl]-3-phenyl-urea]
12 to 100	67 to 100	27 to 100	O=C(Nc1ccc(Cl)cc1)Nc1cc(Nc2cccc(Cl)c2)ncn1 [Example 138, 1-(4-Chloro-phenyl)-3-[6-(3-chloro-phenylamino)-pyrimidin-4-yl]-urea]
12 to 100	67 to 100	27 to 100	Cc1cccc(C)c1NC(=O)N(C)c1cc(Nc2cccc(Cl)c2)ncn1 [Example 127, 1-[6-(3-Chloro-phenylamino)-pyrimidin-4-yl]-3-(2,6-dimethyl-phenyl)-1-methyl-urea]
12 to 100	67 to 100	27 to 100	CCN(CC)c1ccc(Nc2cc(NC(=O)Nc3c(Cl)cccc3Cl)ncn2)cc1 [Example 107, 1-(2,6-Dichloro-phenyl)-3-[6-(4-diethylamino-phenylamino)-pyrimidin-4-yl]-urea]
12 to 100	67 to 100	27 to 100	COc1cccc(NC(=O)Nc2cc(Nc3cccc(Cl)c3)ncn2)c1 [Example 131, 1-[6-(3-Chloro-phenylamino)-pyrimidin-4-yl]-3-(3-methoxy-Phenyl)-urea]
12 to 100	67 to 100	27 to 100	COc1ccc(C)c(NC(=O)Nc2cc(Nc3cccc(Cl)c3)ncn2)c1 [Example 134, 1-[6-(3-Chloro-phenylamino)-pyrimidin-4-yl]-3-(5-methoxy-2-methyl-phenyl)-urea]
